Data as given in article PMC7179434, “1,2,4-Triazolo[1,5-a]pyrimidines as a Novel Class of Inhibitors of the HIV-1 Reverse Transcriptase-Associated Ribonuclease H Activity” (Molecules, 2020).
Entries after “also recorded” stand apart in the source; their conditions may differ. Where two headings read alike, the source gives them in different places.

What was measured:
cell growth = test system: cell growth; parameters: method as in PMID 17184135, PMID 23631411; conditions: concentration that inhibits cell growth by 50%; read-out: CC50 (cytotoxicity); cited from earlier work
HIV-1 RDDP = test system: HIV-1 RDDP; parameters: method as in ref 17-21, 27-29 (per compound as in Figure 1 legend); conditions: known allosteric RNHIs; 27-29 (per compound as in Figure 1 legend); cited from earlier work
HIV-1 replication = conditions: cited from earlier work
HIV-1 RNase H = target: HIV-1 RNase H; parameters: method as in ref 17-25, 27-29 (per compound as in Figure 1 legend); conditions: known allosteric RNHIs, 27-29 (per compound as in Figure 1 legend), cited from earlier work
HIV-2 RNase H = target: HIV-2 RNase H; parameters: method as in PMID 18831589; conditions: cited from earlier work
[1] = target: HIV-1 RT-associated RNase H (Human immunodeficiency virus type 1 group M subtype B, UniProt P03366); assay: biochemical; type: biochemical
HIV-1 RT-associated RDDP = HIV-1 RT-associated RDDP (Human immunodeficiency virus type 1 group M subtype B, UniProt P03366); assay: biochemical; type: biochemical
HIV-2 (ROD strain) = assay: Anti-HIV-2 activity in acutely infected MT-4 cells (MTT); type: cell-based
in vitro = conditions: human
HIV-1 (IIIB strain) = type: cell-based; conditions: acutely infected MT-4 cells
[2] = 28 (per compound as in Figure 1 legend)

In the case of `COc1ccc2ccccc2c1/C=N/NC(=O)c1ccc(O)c(O)c1` [Compound 1], the CC50 (cell growth) is given as over 100000 nM, the IC50 (HIV-1 RDDP) is given as over 25000 nM and the EC50 (HIV-1 replication; [2]) is given as 5500 nM. The IC50 (HIV-1 RNase H) was 500 nM.
For `NC(=O)c1c(N)sc2c1CCCCC2` [Compound 5], the IC50 (HIV-2 RNase H) is given as 2000 to 2500 nM, the IC50 (HIV-2 RNase H; listed as 5 (NSC727447)) is given as 2500 nM and the “EC50 (HIV-1 replication)” value (HIV-1 replication; [2]) is given as “not active”. For the same molecule, the “selectivity index (SI)” value (HIV-1 replication; anti-HIV-1 activity vs cytotoxicity) was 4, the IC50 [1] was 4000 ± 500 nM and the IC50 (HIV-1 RNase H) was 2000 to 2500 nM. The IC50 (HIV-1 RNase H; listed as 5 (NSC727447)) was 2000 nM.
In the case of `O=c1[nH]c(-c2ccc(O)c(O)c2)nc2sc3c(c12)CCCCC3` [Compound 7], the CC50 (cell growth) is given as 6800 nM, the EC50 (HIV-1 replication; [2]) is given as 1600 nM and the IC50 (HIV-1 RNase H) is given as 290 nM.
In the case of `Cc1cc(-c2ccccc2)n2nc(NC(=O)c3ccc(O)c(O)c3)nc2n1` [Compound 12g, 3,4-Dihydroxy-N-(5-methyl-7-phenyl-[1,2,4]triazolo[1,5-a]pyrimidin-2-yl)benzamide], the IC50 (HIV-1 RT-associated RDDP) is reported as over 100000 nM, the melting point is reported as 285 to 288 °C and the IC50 [1] is reported as 800 ± 200 nM. The “anti-HIV-2 (ROD strain) activity” value (HIV-2 (ROD strain)) was “none of the compounds having RNase H inhibition showed anti-HIV activity at concentrations lower than those cytotoxic”, the CC50 at 5 days (in vitro) was 112000 nM and the “anti-HIV-1 (IIIB strain) activity” value (HIV-1 (IIIB strain)) was “did not result in anti-HIV-1 activity in cellular context; also recorded: none of the compounds having RNase H inhibition showed anti-HIV activity at concentrations lower than those cytotoxic”.
Molecule `Cc1cc(-c2ccccc2)nc2nc(NC(=O)c3ccc(O)c(O)c3)nn12` [Compound 13g, 3,4-Dihydroxy-N-(7-methyl-5-phenyl-[1,2,4]triazolo[1,5-a]pyrimidin-2-yl)benzamide] has an IC50 (HIV-1 RT-associated RDDP) of over 100000 nM, a melting point of 298 to 312 °C and an IC50 [1] of 3500 ± 1500 nM. For the same molecule, the “anti-HIV-2 (ROD strain) activity” value (HIV-2 (ROD strain)) was “none of the compounds having RNase H inhibition showed anti-HIV activity at concentrations lower than those cytotoxic” and the “anti-HIV-1 (IIIB strain) activity” value (HIV-1 (IIIB strain)) was “none of the compounds having RNase H inhibition showed anti-HIV activity at concentrations lower than those cytotoxic”.
In the case of `O=C(Nc1nc2nc(-c3ccccc3)cc(-c3ccccc3)n2n1)c1ccc(O)c(O)c1` [Compound 15g, N-(5,7-diphenyl-[1,2,4]triazolo[1,5-a]pyrimidin-2-yl)-3,4-dihydroxybenzamide], the IC50 (HIV-1 RT-associated RDDP) is reported as 20500 ± 4100 nM, the “fold weaker potency against RDDP than against RNase H” value (HIV-1 RT-associated RDDP; RDDP IC50 vs RNase H IC50) is reported as 10 fold and the melting point is reported as 258 to 260 °C. For the same molecule, the IC50 [1] was 1860 ± 540 nM, the “anti-HIV-2 (ROD strain) activity” value (HIV-2 (ROD strain)) was “none of the compounds having RNase H inhibition showed anti-HIV activity at concentrations lower than those cytotoxic” and the “anti-HIV-1 (IIIB strain) activity” value (HIV-1 (IIIB strain)) was “none of the compounds having RNase H inhibition showed anti-HIV activity at concentrations lower than those cytotoxic”.
With `Cc1cc(-c2ccc(O)c(O)c2)n2nc(NC(=O)c3ccccc3)nc2n1` [Compound 17h, N-(7-(3,4-dihydroxyphenyl)-5-methyl-[1,2,4]triazolo[1,5-a]pyrimidin-2-yl)benzamide] the IC50 (HIV-1 RT-associated RDDP) was over 100000 nM, the melting point was 260 to 263 °C and the IC50 [1] was 1130 ± 330 nM. The “anti-HIV-2 (ROD strain) activity” value (HIV-2 (ROD strain)) was “none of the compounds having RNase H inhibition showed anti-HIV activity at concentrations lower than those cytotoxic” and the “anti-HIV-1 (IIIB strain) activity” value (HIV-1 (IIIB strain)) was “none of the compounds having RNase H inhibition showed anti-HIV activity at concentrations lower than those cytotoxic”.
`Cc1cc(-c2ccccc2)n2nc(C(=O)Nc3ccc(O)c(O)c3)nc2n1` [Compound 18g, N-(3,4-Dihydroxyphenyl)-5-methyl-7-phenyl-[1,2,4]triazolo[1,5-a]pyrimidine-2-carboxamide] showed an IC50 (HIV-1 RT-associated RDDP) of over 100000 nM, a melting point of 278 to 281 °C and an IC50 [1] of 410 ± 5 nM. The “anti-HIV-2 (ROD strain) activity” value (HIV-2 (ROD strain)) was “none of the compounds having RNase H inhibition showed anti-HIV activity at concentrations lower than those cytotoxic” and the “anti-HIV-1 (IIIB strain) activity” value (HIV-1 (IIIB strain)) was “did not result in anti-HIV-1 activity in cellular context; also recorded: none of the compounds having RNase H inhibition showed anti-HIV activity at concentrations lower than those cytotoxic”.
